From ChEMBL document CHEMBL2150960 (ACS Med Chem Lett, 2010)
pIC50, pKi: −log10 of the molar value.

How the values were obtained:
[1] = Plasma protein binding in dog assessed as fraction unbound at 5 uM; format: ADME, cell-free, Canis lupus familiaris
[2] = Volume of distribution at steady state in dog at 10 mg/kg; format: ADME, organism-based, Canis lupus familiaris; set-up: dose 10 mg/kg; settings: in vivo, read-out: Vdss
PXR (NR1I2) = biological target: T1, PXR (NR1I2) (Homo sapiens, UniProt O75469); assay: Activity at PXR at 10 uM relative to rifampicin; settings: read-out: Activity
T1 sequence (O75469 whole entry): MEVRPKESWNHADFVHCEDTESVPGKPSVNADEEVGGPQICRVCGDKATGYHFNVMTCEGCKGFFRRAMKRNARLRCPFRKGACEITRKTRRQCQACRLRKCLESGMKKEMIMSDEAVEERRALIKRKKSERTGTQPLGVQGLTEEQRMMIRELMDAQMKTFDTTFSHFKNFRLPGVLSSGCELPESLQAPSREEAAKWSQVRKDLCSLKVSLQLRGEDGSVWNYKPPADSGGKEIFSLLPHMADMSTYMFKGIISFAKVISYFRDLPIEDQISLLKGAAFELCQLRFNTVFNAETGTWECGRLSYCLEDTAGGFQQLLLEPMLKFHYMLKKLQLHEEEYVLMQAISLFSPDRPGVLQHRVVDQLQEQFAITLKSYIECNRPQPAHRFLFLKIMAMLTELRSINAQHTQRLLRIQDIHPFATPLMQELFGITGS

Rattus norvegicus [3] = assay: Anticonvulsant activity in WAG/Rij rat assessed as inhibition of seizure at 3 mg/kg, po measured after 4 hrs; format: functional
[4] = Half life in rat at 10 mg/kg; format: ADME, organism-based; set-up: dose 10 mg/kg; settings: in vivo
[5] = Bioavailability in dog at 10 mg/kg; format: ADME, organism-based, Canis lupus familiaris; settings: in vivo
[6] = Binding affinity to T-type calcium channel
P-gp = assay: Permeability across pig LLC-PK1 cells expressing P-gp; format: ADME, cell-based, Sus scrofa
[7] = Systemic clearance in rat at 10 mg/kg; format: ADME, organism-based; set-up: dose 10 mg/kg; settings: in vivo
[8] = Volume of distribution at steady state in rat at 10 mg/kg; format: ADME, organism-based; set-up: dose 10 mg/kg; settings: in vivo, read-out: Vdss
[9] = Antagonist activity at depolarized T-type calcium channel by FLIPR assay; format: functional
[10] = biological target: Voltage-gated inwardly rectifying potassium channel KCNH2 (Homo sapiens, UniProt Q12809); assay: Displacement of […] from human ERG in HEK293 cells; format: cell-based
Voltage-gated inwardly rectifying potassium channel KCNH2, sequence (Q12809 whole entry): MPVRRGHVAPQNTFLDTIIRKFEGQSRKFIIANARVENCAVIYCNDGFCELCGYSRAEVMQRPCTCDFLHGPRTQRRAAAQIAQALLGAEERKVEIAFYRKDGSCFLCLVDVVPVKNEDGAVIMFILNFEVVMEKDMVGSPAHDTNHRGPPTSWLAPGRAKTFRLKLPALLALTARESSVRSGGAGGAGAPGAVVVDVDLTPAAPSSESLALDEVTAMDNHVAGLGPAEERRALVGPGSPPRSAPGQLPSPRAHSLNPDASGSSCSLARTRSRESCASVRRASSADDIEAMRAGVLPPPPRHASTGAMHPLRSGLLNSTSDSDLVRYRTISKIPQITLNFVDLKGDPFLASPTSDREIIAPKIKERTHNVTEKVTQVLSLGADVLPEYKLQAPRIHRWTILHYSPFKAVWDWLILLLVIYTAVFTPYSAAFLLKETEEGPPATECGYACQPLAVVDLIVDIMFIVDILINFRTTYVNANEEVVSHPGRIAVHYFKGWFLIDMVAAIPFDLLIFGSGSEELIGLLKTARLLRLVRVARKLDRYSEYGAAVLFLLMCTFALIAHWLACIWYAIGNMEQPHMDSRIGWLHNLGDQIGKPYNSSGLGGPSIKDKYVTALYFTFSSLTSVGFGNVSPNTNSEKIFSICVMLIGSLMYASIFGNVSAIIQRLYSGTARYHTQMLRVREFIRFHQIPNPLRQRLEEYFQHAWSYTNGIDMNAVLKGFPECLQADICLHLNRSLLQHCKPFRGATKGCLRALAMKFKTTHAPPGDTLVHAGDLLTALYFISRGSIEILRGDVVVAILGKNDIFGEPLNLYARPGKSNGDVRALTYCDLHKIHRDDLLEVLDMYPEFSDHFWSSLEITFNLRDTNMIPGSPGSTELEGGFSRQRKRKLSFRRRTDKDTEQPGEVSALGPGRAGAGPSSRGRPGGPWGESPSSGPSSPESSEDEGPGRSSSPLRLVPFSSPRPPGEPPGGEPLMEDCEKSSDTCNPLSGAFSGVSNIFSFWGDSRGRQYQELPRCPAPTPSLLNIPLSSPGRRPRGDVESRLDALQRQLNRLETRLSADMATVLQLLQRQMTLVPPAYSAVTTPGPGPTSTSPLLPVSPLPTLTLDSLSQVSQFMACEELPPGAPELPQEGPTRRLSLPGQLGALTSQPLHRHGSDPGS

Liver microsomes [11] = assay: Covalent protein binding in human liver microsomes assessed as GSH adduct formation measured per mg protein at 10 uM after 60 mins in presence of NADPH by NMR spectroscopy; format: ADME, Microsome; settings: 1 h
[12] = Systemic clearance in dog at 10 mg/kg; format: ADME, organism-based, Canis lupus familiaris; set-up: dose 10 mg/kg; settings: in vivo
[13] = Plasma protein binding in rat assessed as fraction unbound at 5 uM; format: ADME, cell-free
[14] = Ratio of IC50 for hyperpolarized T-type calcium channel to IC50 for depolarized T-type calcium channel
[15] = Antagonist activity at hyperpolarized T-type calcium channel by FLIPR assay; format: functional
[16] = Bioavailability in rat at 10 mg/kg; format: ADME, organism-based; settings: in vivo
LLC-PK1 = assay: Ratio of permeability from basolateral to apical side to apical to basolateral side of pig LLC-PK1 cells expressing P-gp; format: ADME, cell-based, Sus scrofa
[17] = Half life in dog at 10 mg/kg; format: ADME, organism-based, Canis lupus familiaris; set-up: dose 10 mg/kg; settings: in vivo
[18] = Antagonist activity at L-type calcium channel by FLIPR assay; format: functional
[19] = Plasma protein binding in human assessed as fraction unbound at 5 uM; format: ADME, cell-free
[20] = Inhibition of Sodium channel; settings: concentration not given here
Liver microsomes [21] = assay: Covalent protein binding in human liver microsomes assessed per mg protein at 10 uM after 60 mins in presence of NADPH by NMR spectroscopy; format: ADME, Microsome; settings: 1 h
[22] = Cmax in human at 20 mg, po; format: ADME, organism-based; set-up: dose 20 mg, route oral; settings: in vivo
[23] = Half life in rat at 5 mg/kg, po; format: ADME, organism-based; set-up: dose 5 mg/kg, route oral; settings: in vivo
[24] = Half life in rhesus monkey at 10 mg/kg; format: ADME, organism-based, Macaca mulatta; set-up: dose 10 mg/kg; settings: in vivo
[25] = Bioavailability in rhesus monkey at 10 mg/kg; format: ADME, organism-based, Macaca mulatta; settings: in vivo
Rattus norvegicus [26] = assay: Effect on sleep wake cycle in rat assessed as suppression of active wake time at 5 mg/kg, po administered daily 30 mins before inactive phase; format: functional
[27] = Volume of distribution at steady state in rhesus monkey at 10 mg/kg; format: ADME, organism-based, Macaca mulatta; set-up: dose 10 mg/kg; settings: in vivo, read-out: Vdss
[28] = biological target: T2, Voltage-dependent T-type calcium channel subunit alpha-1I (Homo sapiens, UniProt Q9P0X4); assay: Antagonist activity at Cav3.3 at -100 mV holding potential by whole cell patch clamp analysis; format: functional
T2 sequence (Q9P0X4 whole entry): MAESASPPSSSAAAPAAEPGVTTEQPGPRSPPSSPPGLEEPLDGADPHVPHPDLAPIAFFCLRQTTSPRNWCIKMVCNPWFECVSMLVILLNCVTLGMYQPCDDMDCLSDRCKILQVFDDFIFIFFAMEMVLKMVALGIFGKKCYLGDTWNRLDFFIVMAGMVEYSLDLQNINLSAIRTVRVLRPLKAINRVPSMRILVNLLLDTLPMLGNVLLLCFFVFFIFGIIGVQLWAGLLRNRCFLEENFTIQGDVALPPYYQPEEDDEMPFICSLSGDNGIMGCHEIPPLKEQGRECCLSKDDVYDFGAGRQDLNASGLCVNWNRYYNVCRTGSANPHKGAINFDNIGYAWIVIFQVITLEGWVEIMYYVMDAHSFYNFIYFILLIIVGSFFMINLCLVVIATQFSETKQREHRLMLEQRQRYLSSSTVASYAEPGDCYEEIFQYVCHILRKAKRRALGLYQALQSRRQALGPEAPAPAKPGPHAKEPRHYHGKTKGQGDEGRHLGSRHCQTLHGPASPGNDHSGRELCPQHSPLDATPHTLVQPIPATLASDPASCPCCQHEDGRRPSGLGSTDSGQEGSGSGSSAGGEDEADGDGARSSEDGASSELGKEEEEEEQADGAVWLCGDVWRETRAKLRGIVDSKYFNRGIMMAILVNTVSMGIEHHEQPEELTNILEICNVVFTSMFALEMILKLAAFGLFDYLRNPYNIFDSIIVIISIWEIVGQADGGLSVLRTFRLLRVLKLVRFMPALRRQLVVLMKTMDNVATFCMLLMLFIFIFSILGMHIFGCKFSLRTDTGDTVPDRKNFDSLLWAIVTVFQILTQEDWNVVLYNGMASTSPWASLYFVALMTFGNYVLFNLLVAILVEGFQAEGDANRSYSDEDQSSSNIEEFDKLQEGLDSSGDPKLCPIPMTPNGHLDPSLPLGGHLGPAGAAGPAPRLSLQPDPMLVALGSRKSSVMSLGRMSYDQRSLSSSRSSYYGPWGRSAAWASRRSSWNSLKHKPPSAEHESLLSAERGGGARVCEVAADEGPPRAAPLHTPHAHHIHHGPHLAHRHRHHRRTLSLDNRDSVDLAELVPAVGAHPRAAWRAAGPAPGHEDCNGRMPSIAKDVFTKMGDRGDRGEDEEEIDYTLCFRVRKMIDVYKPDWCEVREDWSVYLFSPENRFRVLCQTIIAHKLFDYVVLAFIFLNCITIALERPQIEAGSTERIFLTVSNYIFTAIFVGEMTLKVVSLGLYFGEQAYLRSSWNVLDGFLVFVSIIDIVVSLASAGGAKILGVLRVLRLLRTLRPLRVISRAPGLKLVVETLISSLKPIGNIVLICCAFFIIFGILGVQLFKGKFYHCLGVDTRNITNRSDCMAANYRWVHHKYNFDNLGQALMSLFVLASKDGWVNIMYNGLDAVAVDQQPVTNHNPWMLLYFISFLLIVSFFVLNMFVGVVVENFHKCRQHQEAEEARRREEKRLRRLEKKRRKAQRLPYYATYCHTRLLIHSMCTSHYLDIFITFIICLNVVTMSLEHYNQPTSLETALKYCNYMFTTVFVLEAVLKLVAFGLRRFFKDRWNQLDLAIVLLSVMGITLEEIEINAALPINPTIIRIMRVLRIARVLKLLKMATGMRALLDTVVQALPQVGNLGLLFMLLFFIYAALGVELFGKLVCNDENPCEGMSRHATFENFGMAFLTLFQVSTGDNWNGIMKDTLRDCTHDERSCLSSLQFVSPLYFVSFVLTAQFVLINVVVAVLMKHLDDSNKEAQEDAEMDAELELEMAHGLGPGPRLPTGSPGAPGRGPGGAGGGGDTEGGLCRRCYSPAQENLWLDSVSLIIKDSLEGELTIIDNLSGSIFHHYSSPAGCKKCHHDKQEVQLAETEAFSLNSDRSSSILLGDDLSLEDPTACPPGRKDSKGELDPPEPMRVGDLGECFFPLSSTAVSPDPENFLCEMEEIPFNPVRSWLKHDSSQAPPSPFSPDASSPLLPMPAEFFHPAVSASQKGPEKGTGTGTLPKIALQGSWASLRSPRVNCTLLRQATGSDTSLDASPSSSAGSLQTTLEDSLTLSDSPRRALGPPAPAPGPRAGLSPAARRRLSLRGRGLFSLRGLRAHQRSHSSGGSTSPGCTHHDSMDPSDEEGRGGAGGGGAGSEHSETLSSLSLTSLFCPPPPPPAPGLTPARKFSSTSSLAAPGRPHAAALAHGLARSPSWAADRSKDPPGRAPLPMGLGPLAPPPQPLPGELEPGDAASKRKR

[29] = biological target: T2, Voltage-dependent T-type calcium channel subunit alpha-1I; assay: Antagonist activity at Cav3.3 at -80 mV holding potential by whole cell patch clamp analysis; format: functional
[30] = biological target: Voltage-gated potassium channel, IKs; KCNQ1(Kv7.1)/KCNE1(MinK) (Homo sapiens, UniProt P51787+P15382); assay: Inhibition of IKs; format: protein-complex assay
Voltage-gated potassium channel, IKs; KCNQ1(Kv7.1)/KCNE1(MinK), sequence (P51787 whole entry): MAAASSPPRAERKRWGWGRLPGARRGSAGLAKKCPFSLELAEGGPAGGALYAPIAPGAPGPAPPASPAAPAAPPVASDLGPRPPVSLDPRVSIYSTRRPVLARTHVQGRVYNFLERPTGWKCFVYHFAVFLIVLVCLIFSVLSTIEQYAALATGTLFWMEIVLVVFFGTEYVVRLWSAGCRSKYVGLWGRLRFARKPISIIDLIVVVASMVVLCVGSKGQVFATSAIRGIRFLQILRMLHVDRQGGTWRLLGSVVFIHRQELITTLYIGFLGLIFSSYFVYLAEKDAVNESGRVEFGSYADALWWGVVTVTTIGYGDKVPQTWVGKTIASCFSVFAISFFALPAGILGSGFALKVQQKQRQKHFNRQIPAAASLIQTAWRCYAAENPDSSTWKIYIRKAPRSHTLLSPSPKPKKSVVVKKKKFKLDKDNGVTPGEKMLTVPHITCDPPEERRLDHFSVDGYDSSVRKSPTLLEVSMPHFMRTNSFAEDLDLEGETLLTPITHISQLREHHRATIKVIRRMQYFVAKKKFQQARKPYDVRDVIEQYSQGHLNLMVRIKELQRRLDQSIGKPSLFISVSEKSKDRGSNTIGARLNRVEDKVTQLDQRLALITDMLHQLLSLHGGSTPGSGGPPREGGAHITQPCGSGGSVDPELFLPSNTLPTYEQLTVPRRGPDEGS

[31] = Plasma protein binding in rhesus monkey assessed as fraction unbound at 5 uM; format: ADME, Macaca mulatta
[32] = Apparent terminal half life in human at 20 mg, po; format: ADME, organism-based; settings: in vivo, read-out: betat1/2(app) (converted)
[33] = Systemic clearance in rhesus monkey at 10 mg/kg; format: ADME, organism-based, Macaca mulatta; set-up: dose 10 mg/kg; settings: in vivo
hERG (KCNH2) = hERG (KCNH2) (Homo sapiens, UniProt Q12809); assay: Inhibition of human ERG at 30 uM
[34] = Inhibition of L-type calcium channel at 30 uM
Rattus norvegicus [35] = assay: Effect on sleep wake cycle in po dosed rat assessed as increase in delta sleep administered daily 30 mins before inactive phase measured 0.5 to 2 hrs post administration; format: functional, organism-based

fraction unbound at 5 µM [1] | Vd [2] | activity at 10 µM (PXR (NR1I2)) | half-life [4] | bioavailability [5] | pKi [6] | Papp (P-gp) | clearance [7] | Vd [8] | pIC50 [9] | PB (Liver microsomes [11]) | clearance [12] | fraction unbound at 5 µM [13] | Ratio IC50 [14] | pIC50 [15] | bioavailability [16] | Ratio (LLC-PK1) | pIC50 [18] | SMILES | inhibition in vivo at 3 mg/kg (Rattus norvegicus [3]) | pIC50 [10] | other results
0.016 | 0.3 L/kg | 7% | 24 min | 50% | 9.70 | 35 ×10⁻⁶ cm/s | 35 mL/min/kg | 1.1 L/kg | 8.28 | 1558 pmol | 3.6 mL/min/kg | 0.052 | > 80 | 6.69 | 100% | 1.1 | < 5.00 | Cc1ncoc1-c1ccc(CC(=O)N[C@H](C)c2ccc(OCC(F)(F)F)cn2)cc1 | 72% | < 4.52 | half-life [17]: 66 min
0.155 | 0.36 L/kg | 8% | 14.4 min | 23% | 8.26 | 44 ×10⁻⁶ cm/s | 30.3 mL/min/kg | 0.59 L/kg | 7.50 |  | 11.8 mL/min/kg | 0.123 | > 80 | 5.72 | 71% | 1.3 | < 5.00 | Cc1nccnc1-c1ccc(CC(=O)N[C@H](C)c2ccc(OCC(F)(F)F)cn2)cc1 | 87% | < 4.52 | fraction unbound at 5 µM [19]: 0.032; inhibition [20]: 20%; PB (Liver microsomes [21]): 8 pmol; Cmax [22]: 1820 nM; half-life [23]: 14 min; half-life [24]: 31.8 min; bioavailability [25]: 5%; Time (Rattus norvegicus [26]): 1.5 h; Vd [27]: 0.74 L/kg; pIC50 [28]: 4.92; pIC50 [29]: 6.58; inhibition (INH) [30]: Not Active; fraction unbound at 5 µM [31]: 0.146; half-life [32]: 180 min; clearance [33]: 19.3 mL/min/kg; inhibition at 30 µM (hERG (KCNH2)): 41%; inhibition [34]: 12%; Activity (Rattus norvegicus [35]): Dose-dependent effect; half-life [17]: 48.6 min
 |  | 31% |  |  | 9.52 | 41 ×10⁻⁶ cm/s |  |  | 8.43 |  |  |  |  | 6.60 |  |  | < 5.00 | C[C@@H](NC(=O)Cc1ccc(N2CC[C@H](F)C2)cc1)c1ccc(OCC(F)(F)F)cn1 |  |  | 
 |  | 17% |  |  | 8.92 | 45 ×10⁻⁶ cm/s |  |  | 8.03 |  |  |  | > 80 | 6.42 |  | 0.7 | < 5.00 | C[C@@H](NC(=O)Cc1ccc(C2CC2)cc1)c1ccc(OCC(F)(F)F)cn1 | 87% | < 5.00 | 
 |  | 0% |  |  |  | 38 ×10⁻⁶ cm/s |  |  | 8.27 | 244 pmol |  |  | > 80 | 6.40 |  | 1.3 | < 5.00 | C[C@@H](NC(=O)Cc1ccc(-c2cnn3ncccc23)cc1)c1ccc(OCC(F)(F)F)cn1 | 85% | < 4.52 | 
